What was measured:
[1] = tested on: MALME-3M cells; test: MALME-3M cell cytotoxicity assay (CellTiter-Glo); assay type: cell-based, human; settings: Homo sapiens, Malme-3M, read-out: Target Potency IC50 (μM) MALME-3M; 24 hours, CellTiter-Glo
Experimental: MALME-3M cells were treated with compounds for 24 hours, and then cell viability was measured using the CellTiter-Glo Assay (Promega), a luciferase-based reagent that measures cellular ATP levels. The compounds were tested at different concentrations to determine IC50 values. Compounds that were active in the primary assay and toxic below 30 μM at 24 hours were considered for probe development. Data were normalized against DMSO in Genedata Screener's Assay Analyzer.
MALME-3M cells were maintained in IMDM (20% FBS, 1% Pen-Strep-Glutamine). Cells were fluid changed every 3 days and/or split upon reaching 100% confluency. For secondary assays, cells were thawed at 6 million cells per Falcon T175 flask. After 3 days, cells were fluid changed, after 3 more days cells were passed to a Corning Triple flask (15-18 million cells) and plated after 3 days in the triple flask.
Day 1 • 1. Plate MALME-3M cells at 3,000 per well in 30 uL media (phenol red free IMDM/10% Fetal Bovine Serum/Penicillin/Streptomycin/L-Glutamine) • 2. Use Corning white 384-well, square, opaque-bottomed plates (Corning Catalog No. 8867BC)
Day 2 • 3. Pin 100 nL compound/DMSO solution (Cybi Well) into assay plates, including the positive control. • 4. Incubate 24 hours at 37° C. in Liconic incubator.
Day 3 • 5. […] Read on the Perkin-Elmer EnVision plate reader with luminescence (LUM) settings for 0.1 sec per well. […]

[2] = tested on: TRPM1; test: qPCR assay for TRPM1 expression in SK-MEL-5 cells; assay type: cell-based; settings: Homo sapiens; SK-MEL-5 melanoma cells, up to 35 μM; read-out: TRPM-1 qPCR assay EC50
[3] = target: T1, Adrenergic β2 (Homo sapiens, UniProt P07550); test: Radioligand binding, Adrenergic β2
T1 construct: Eurofins Panlabs, Inc. (contract assay)
T1 sequence (P07550 whole entry): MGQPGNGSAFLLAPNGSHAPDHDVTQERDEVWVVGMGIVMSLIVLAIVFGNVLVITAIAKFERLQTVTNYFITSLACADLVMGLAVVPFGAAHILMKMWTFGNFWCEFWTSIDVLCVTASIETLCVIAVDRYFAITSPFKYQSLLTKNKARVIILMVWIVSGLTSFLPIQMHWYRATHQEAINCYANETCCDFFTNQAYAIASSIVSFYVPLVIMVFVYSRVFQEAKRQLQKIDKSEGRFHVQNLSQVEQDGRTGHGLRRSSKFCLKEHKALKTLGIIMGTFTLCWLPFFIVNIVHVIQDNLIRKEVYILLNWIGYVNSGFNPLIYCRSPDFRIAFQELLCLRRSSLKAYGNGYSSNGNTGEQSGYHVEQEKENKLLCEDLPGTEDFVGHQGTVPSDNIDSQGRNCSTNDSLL

[4] = target: T2, Adenosine A3 (Homo sapiens, UniProt P0DMS8); test: Radioligand binding, Adenosine A3
T2 construct: Eurofins Panlabs, Inc. (contract assay) 200720 (assay number)
T2 sequence (P0DMS8 whole entry): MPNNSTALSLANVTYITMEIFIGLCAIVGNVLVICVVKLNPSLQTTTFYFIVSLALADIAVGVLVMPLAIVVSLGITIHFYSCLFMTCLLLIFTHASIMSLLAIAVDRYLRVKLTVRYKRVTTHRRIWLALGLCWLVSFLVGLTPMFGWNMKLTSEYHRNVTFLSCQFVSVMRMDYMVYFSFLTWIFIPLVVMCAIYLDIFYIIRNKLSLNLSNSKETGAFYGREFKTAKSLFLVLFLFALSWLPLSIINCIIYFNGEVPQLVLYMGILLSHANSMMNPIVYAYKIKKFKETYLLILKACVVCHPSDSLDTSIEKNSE

[5] = target: T3, Serotonin (5-Hydroxytryptamine) 5-HT1A (Homo sapiens, UniProt P08908); test: Radioligand binding, Serotonin (5-Hydroxytryptamine) 5-HT1A
T3 construct: Eurofins Panlabs
T3 sequence (P08908 whole entry): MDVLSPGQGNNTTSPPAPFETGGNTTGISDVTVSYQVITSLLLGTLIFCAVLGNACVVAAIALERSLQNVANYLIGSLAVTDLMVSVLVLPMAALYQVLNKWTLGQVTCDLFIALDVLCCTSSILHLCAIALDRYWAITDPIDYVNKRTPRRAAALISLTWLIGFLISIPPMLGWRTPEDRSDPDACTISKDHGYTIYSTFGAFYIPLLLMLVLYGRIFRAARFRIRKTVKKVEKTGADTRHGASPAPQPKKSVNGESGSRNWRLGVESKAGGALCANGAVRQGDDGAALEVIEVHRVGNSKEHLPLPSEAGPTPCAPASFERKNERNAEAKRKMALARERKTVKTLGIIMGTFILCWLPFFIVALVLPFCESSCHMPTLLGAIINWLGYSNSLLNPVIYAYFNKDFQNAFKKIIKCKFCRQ

[6] = target: T4, Glutamate, NMDA, Glycine (Rattus norvegicus, UniProt P35439); test: Radioligand binding, Glutamate, NMDA, Glycine
T4 construct: Eurofins Panlabs, Inc

[7] = target: T5, Adrenergic α1A (Rattus norvegicus, UniProt P43140); test: Radioligand binding, Adrenergic α1A
T5 construct: Eurofins Panlabs, Inc. (contract assay) 203100 (assay number)
T5 sequence (P43140 whole entry): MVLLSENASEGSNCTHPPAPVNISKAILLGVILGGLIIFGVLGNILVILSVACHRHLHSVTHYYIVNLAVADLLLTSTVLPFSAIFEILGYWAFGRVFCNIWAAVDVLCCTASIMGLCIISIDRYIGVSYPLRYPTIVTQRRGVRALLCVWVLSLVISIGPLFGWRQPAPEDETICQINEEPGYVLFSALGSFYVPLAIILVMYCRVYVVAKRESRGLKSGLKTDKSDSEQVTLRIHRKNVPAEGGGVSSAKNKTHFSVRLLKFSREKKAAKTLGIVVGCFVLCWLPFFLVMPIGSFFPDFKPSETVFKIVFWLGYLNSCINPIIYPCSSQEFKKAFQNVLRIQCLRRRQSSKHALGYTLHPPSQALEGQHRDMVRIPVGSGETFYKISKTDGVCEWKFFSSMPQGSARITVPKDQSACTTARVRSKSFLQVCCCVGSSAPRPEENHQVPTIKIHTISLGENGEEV

[8] = target: T6, Bradykinin B1 (Homo sapiens, UniProt P46663); test: Radioligand binding, Bradykinin B1
T6 construct: Eurofins Panlabs, Inc. (contract assay)
T6 sequence (P46663 whole entry): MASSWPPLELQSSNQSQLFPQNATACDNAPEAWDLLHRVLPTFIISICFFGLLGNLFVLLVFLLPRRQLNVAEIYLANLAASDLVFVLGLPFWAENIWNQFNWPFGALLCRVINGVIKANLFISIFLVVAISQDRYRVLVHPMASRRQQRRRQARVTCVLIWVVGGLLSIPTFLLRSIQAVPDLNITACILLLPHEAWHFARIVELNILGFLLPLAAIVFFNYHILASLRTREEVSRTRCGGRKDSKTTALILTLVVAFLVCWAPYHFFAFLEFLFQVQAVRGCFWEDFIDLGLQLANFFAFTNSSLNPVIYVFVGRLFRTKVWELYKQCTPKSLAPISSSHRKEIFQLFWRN

[9] = target: T7, Estrogen ERα (Homo sapiens, UniProt P03372); test: Radioligand binding, Estrogen ERα
T7 construct: Eurofins Panlabs, Inc. (contract assay)
T7 sequence (P03372 whole entry): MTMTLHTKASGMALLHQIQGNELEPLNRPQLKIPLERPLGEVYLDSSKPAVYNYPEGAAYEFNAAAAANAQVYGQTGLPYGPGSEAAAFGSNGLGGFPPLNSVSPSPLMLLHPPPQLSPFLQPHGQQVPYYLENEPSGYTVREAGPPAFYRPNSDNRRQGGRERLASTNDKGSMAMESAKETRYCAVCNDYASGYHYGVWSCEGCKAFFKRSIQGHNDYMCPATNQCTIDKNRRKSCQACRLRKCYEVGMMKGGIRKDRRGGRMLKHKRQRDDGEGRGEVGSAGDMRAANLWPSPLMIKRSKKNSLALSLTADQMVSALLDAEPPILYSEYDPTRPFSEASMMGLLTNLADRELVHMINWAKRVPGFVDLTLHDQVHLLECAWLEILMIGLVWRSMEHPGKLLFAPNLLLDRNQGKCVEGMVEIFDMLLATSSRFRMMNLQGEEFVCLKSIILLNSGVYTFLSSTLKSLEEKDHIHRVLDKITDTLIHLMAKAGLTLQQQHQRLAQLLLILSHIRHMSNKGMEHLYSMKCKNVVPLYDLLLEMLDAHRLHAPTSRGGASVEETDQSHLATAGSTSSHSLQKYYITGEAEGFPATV

[10] = target: T8, Epidermal Growth Factor (EGF) (Homo sapiens, UniProt P00533); test: Radioligand binding, Epidermal Growth Factor (EGF)
T8 construct: Eurofins Panlabs, Inc. (contract assay)
T8 sequence (P00533 25-1210): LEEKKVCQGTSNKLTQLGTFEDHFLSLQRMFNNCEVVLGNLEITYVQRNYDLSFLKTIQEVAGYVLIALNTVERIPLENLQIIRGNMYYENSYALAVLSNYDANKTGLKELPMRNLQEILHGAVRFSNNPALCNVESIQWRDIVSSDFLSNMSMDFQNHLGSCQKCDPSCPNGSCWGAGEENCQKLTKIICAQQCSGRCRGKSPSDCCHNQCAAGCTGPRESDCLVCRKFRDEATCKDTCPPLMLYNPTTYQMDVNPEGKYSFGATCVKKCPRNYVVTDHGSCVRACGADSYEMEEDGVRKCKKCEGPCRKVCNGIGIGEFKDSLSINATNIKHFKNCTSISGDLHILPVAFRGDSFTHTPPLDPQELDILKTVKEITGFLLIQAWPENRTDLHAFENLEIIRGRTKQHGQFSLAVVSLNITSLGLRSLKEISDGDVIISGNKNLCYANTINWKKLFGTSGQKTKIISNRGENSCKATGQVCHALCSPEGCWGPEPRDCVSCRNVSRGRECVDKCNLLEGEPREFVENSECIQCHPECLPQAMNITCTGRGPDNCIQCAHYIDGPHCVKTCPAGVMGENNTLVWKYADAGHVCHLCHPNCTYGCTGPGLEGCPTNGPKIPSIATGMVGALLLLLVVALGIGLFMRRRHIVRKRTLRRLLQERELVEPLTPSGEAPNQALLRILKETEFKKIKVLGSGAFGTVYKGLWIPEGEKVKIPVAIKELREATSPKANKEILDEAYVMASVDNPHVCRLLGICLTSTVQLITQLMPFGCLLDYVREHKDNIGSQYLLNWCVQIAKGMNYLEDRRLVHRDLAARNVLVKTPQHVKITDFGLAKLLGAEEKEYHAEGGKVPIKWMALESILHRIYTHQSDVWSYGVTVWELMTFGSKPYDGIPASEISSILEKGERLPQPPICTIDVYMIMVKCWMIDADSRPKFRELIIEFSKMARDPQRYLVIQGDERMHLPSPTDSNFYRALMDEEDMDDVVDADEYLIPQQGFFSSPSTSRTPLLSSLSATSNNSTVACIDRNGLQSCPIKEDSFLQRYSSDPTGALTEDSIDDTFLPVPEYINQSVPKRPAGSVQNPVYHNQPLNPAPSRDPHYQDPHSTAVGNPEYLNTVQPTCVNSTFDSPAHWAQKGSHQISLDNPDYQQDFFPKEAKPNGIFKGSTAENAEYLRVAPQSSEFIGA

Row | SMILES | IC50 [1] [µM] | EC50 [2] [nM] | inhibition at 10 µM [3] [%] | inhibition at 10 µM [4] [%] | inhibition at 10 µM [5] [%] | inhibition at 10 µM [6] [%] | inhibition at 10 µM [7] [%] | inhibition at 10 µM [8] [%] | inhibition at 10 µM [9] [%] | inhibition at 10 µM [10] [%]
1 | NS(=O)(=O)c1ccc(NC2=CC(=O)c3ccccc3C2=O)cc1 [4-((1,4-dioxo-1,4-dihydronaphthalen-2-yl)amino)benzenesulfonamide] | 0.88 | 160 | – | – | – | – | – | – | – | –
2 | NS(=O)(=O)c1ccc(NC2=CC(=O)c3ccccc3C2=O)cc1 [Example 1, 4-((1,4-Dioxo-1,4-dihydronaphthalen-2-yl)amino)benzenesulfonamide] | – | – | 10 | 15 | 21 | 9 | 28 | 29 | 5 | 11

Reference: patent US9745261B2, “Inhibitors of the MITF molecular pathway” (THE GENERAL HOSPITAL CORPORATION, priority 2013, dated 2017)
